Reference: patent US11478466B2, “Small molecule promoting osteoblast differentiation” (Cornell University, priority 2019, dated 2022)

B1: RANKL: Receptor activator of nuclear factor kB ligand, positive control to stimulate osteoclast differentiation (protein, UniProt O14788 140-317, looked up)
Tumor necrosis factor ligand …: IRAEKAMVDGSWLDLAKRSKLEAQPFAHLTINATDIPSGSHKVSLSSWYHDRGWAKISNMTFSNGKLIVNQDGFYYLYANICFRHHETSGDLATEYLQLMVYVTKTSIKIPSSHTLMKGGSTKYWSGNSEFHFYSINVGGFFKLRSGEEISIEVSNPSLLDPDQDATYFGAFKVRDID

Assays:
Assay type in all cases: cell-based, mouse
[1] = system: alkaline phosphatase (ALP); assay: ALP expression staining in C2C12 cells; details: C2C12, 2 days, 10 μM
Experimental: C2C12 cells were treated for 2 days with 10 μM DIPQUO or structural analogs, 1 ng/ml rhBMP4, or with inhibitors as noted in figure legends, and then fixed briefly in 70% acetone/10% formaldehyde/20% citrate. Staining was achieved using the leukocyte alkaline phosphatase kit (Sigma 86R-1KT) according to the manufacturer's instructions. Expression of ALP was confirmed and quantified by flow cytometric analysis, using an Accuri C6 flow cytometer. Briefly, control- or DIPQUO-treated C2C12 cells were detached and harvested on day 2 using PBS-based enzyme-free cell detachment solution (ThermoFisher). 2×10^5 cells were incubated on ice for 30 minutes with 10 μl APC-conjugated ALPL antibody (R&D Systems), and washed in ice-cold PBS before analysis. Live cells were gated and analyzed in CFlow Plus software and then data was converted to FlowJo to achieve publication-level resolution. For siRNA experiments, gene-specific oligonucleotides were obtained for mouse p38-alpha (Cell Signaling) and p38-beta (Santa Cruz). Signal Silence scramble siRNA control oligonucleotide was purchased from Cell Signaling. C2C12 cells at 70% confluency were transfected in 12-well plates using Lipofectamine RNAiMax reagent (Invitrogen) according to manufacturer's instructions. Transfected cells were treated 24 hours later with DMSO or 10 μM DIPQUO, and siRNA transfection was repeated after 48 hours without changing culture media. After an additional 3 days, cells were either fixed and stained for ALP expression or analyzed for ALP activity using the AttoPhos Substrate kit. Hemagglutinin and FLAG epitope-tagged MKK3 (pMT2-HA-MKK3) and MKK6 (pcDNA3-FLAG-MKK6) constructs were obtained from Addgene and transfected into C2C12 cells using Lipofectamine LTX with Plus Reagent (ThermoFisher) according to manufacturer's instructions and cell extracts analyzed for protein expression and activity as described below.

p38 MAPK = assay: Western blotting of p38 MAPK phosphorylation in C2C12 cells; details: C2C12, western blotting
Experimental: (§1) Whole cell extracts were collected from C2C12 or BRITER cells in complete lysis buffer (20 mM Tris, 150 mM NaCl, 50 mM NaF, 1% NP40 substitute, HALT protease inhibitor cocktail (ThermoScientific). Proteins were resolved by electrophoresis on pre-cast 10% NuPage Bis-Tris gels (Invitrogen) and transferred to PVDF membranes (Bio-Rad). Membranes were blocked in 5% BSA-TBS-0.5% Tween-20 for 15 minutes, then incubated at 4° overnight with primary antibodies. Antibodies used were: rabbit anti-phospho-p38 MAPK (cat. no. 9211), anti-p38 MAPK XP (8690), anti-phospho-SMAD1/5 (9516), anti-SMAD1 XP (6944), anti-phospho-SMAD2/3 (8828), anti-SMAD2/3 XP (8685), anti-phospho-JNK (4668), anti-SAPK/JNK (9252), anti-phospho-Akt XP (4060), pan anti-Akt (4691), anti-phospho ERK p42/p44 (4377), anti-ERK p42/p44 (9102), anti-phospho-MKK3/6 (12280), anti-MKK3 (8535), anti-phospho-TAK1 (4531), anti-TAK1 (5206), anti-HA (3274), and anti-FLAG (14793); all from Cell Signaling); and mouse anti-p38α (cat. no. 33-1300), anti-p38β (33-8700; both ThermoFisher) and anti-β-actin (Sigma A1978). Proteins were visualized with HRP-conjugated secondary antibodies (Bio-Rad) with WestPico (ThermoFisher) or Immobilon (Millipore) chemiluminescence reagents. Images were obtained and analyzed for relative densitometric relationships on a LI-COR C-DiGit scanner using Image Studio software.

JNK p54 = assay: Western blotting of JNK in C2C12 cells
Experimental: as §1

[2] = system: RAW 264.7 murine macrophage cell line; assay: Osteoclast differentiation (TRAP staining, qRT-PCR) in RAW 264.7 cells; details: RAW 264.7, 4 days; DIPQUO 10 μM, RANKL 50 ng/ml
Experimental: To address the specificity of DIPQUO for stimulating an osteogenic versus osteoclastic program, the RAW 264.7 murine macrophage cell line was assayed for osteoclast differentiation by staining for tartrate-resistant acid phosphatase (TRAP) to distinguish multinucleated osteoclasts from macrophages. […] Thus, DIPQUO appears to be primarily supportive of osteogenesis.
The RAW 264.7 macrophage cell line was purchased from ATCC and maintained in DMEM with 10% FBS. Cells were treated with 10 μM DIPQUO or 50 ng/ml RANKL (Sigma) for 4 days. Cells were fixed in 70% acetone/10% formaldehyde/20% citrate and TRAP staining was achieved using the Leukocyte Acid Phosphatase kit (Sigma 387A-1KT).
For quantitative RT-PCR analysis of gene expression in C2C12 cultures, cells were treated for 2 days with 10 μM DIPQUO and harvested into Trizol reagent (Invitrogen). One microgram of RNA was reverse transcribed using the VILO-RT kit (Invitrogen) to generate cDNA, which was diluted 1:25 in RNase-free H2O for qPCR with Sybr green using the Roche 480 II LightCycler and the 2^−ΔΔCT method (Livak and Schmittgen, 2001). For analysis of osteoclast gene expression, RAW 264.7 cells were treated with DMSO, 50 ng/ml RANKL, or 10 μM DIPQUO for 4 days, then harvested into Trizol reagent and processed as above. Mouse qPCR primers are as follows. Runx2: F([…]) (SEQ ID NO:1); R([…]) (SEQ ID NO:2); Dlx5: F([…]) (SEQ ID NO:3); R([…]) (SEQ ID NO:4); Osterix: F([…]) (SEQ ID NO:5); R([…]) (SEQ ID NO:6); ALP: F([…]) (SEQ ID NO:7); R([…]) (SEQ ID NO:8); Osteocalcin: F([…]) (SEQ ID NO:9); R([…]) (SEQ ID NO:10); Osteoactivin: F([…]) (SEQ ID NO:11); R([…]) (SEQ ID NO:12); CTSK: F([…]) (SEQ ID NO:13); R([…]) (SEQ ID NO:14); MMP9: F([…]) (SEQ ID NO:15); R([…]) (SEQ ID NO:16); Gapdh F([…]) (SEQ ID NO:17); R([…]) (SEQ ID NO:18). RNA-seq studies were carried out with the assistance of the Weill Cornell Genomics Core Facility, using the Illumina HiSeq4000 next-generation sequencer to generate reads from cDNA libraries generated from three biological replicates of day 2 DMSO- or DIPQUO-treated C2C12 cells. […]

Molecule | ALP expression by staining [1] | p38 MAPK signaling (phosphorylation) (p38 MAPK) | JNK p54 signaling (JNK p54) | TRAP staining of multinucleated osteoclasts [2]
N#CC(c1ccnc(NCCc2cccnc2)n1)c1nc2ccccc2s1 (stereo not shown) [JNK inhibitor V, reference compound] | did not lead to ALP-positive staining | activate p38 MAPK | suppress JNK p54 | –
B1 | – | – | – | found to promote both TRAP staining
